Converted amounts (≈) assume the structure as drawn.
Experiments:
Assay type in all cases: functional
Pseudomonas aeruginosa = test: Antibacterial activity against Pseudomonas aeruginosa by double dilution technique
Escherichia coli = test: Antibacterial activity against Escherichia coli by double dilution technique
Staphylococcus aureus = test: Antibacterial activity against Staphylococcus aureus by double dilution technique
Candida albicans = test: Antifungal activity against Candida albicans by double dilution technique

Row | MIC (Pseudomonas aeruginosa) | MIC (Escherichia coli) | MIC (Staphylococcus aureus) | MIC (Candida albicans) | SMILES
1 | 0.625 µg/mL (≈ 2.47 µM) | 0.625 µg/mL (≈ 2.47 µM) | 1.25 µg/mL (≈ 4.94 µM) | 0.625 µg/mL (≈ 2.47 µM) | O=C(O)c1cccc(N2Cc3ccccc3C2=O)c1
2 | 0.625 µg/mL (≈ 2.47 µM) | 1.25 µg/mL (≈ 4.94 µM) | 1.25 µg/mL (≈ 4.94 µM) | 1.25 µg/mL (≈ 4.94 µM) | O=C(O)c1ccc(N2Cc3ccccc3C2=O)cc1
3 | 1.25 µg/mL (≈ 4.94 µM) | 2.5 µg/mL (≈ 9.87 µM) | 2.5 µg/mL (≈ 9.87 µM) | 1.25 µg/mL (≈ 4.94 µM) | O=C(O)c1ccccc1N1Cc2ccccc2C1=O
